Results from patent US20210198256A1, “COMPOUNDS FOR THE DEGRADATION OF BRD9 OR MTH1” (C4 Therapeutics, Inc., priority 2018, published 2021).

Tested on: SMART-CAR_MTH1-WT (Jurkat.2 cells)
Test: HTFC Assay (HTFC DC50)
Assay type: cell-based, human
Details: Jurkat.2 (SMART-CAR_MTH1-WT) cells, 4 hours at 37° C., FITC anti-HA staining, flow cytometry
Description: FITC anti-HA.11 epitope tag antibody (Biolegend #901507) FITC Mouse IgG1 k isotope control antibody (Biolegend #400108)
Dry dispense 10 nL/well of compound+90 […] into 96-well V-bottom plates: 4 compounds/plate in 11-point dose response in biological duplicates. Column 12 as DMSO controls.
• 1. Plate Jurkat.2 (SMART-CAR_MTH1-WT) cells with Combi on top of dry dispensed compound: 500,000 cells/mL, 100 uL/well • 2. Incubate for 4 hours at 37° C. • 3. Fixation, permeabilization, and staining: • a. Centrifuge at 1500 rpm for 7 minutes, remove supernatant. • b. Add 100 μl of Fixation/Permeabilization Solution, seal plates, vortex, pulse spin, and incubate at 4° C. for 30 minutes. • c. Centrifuge at 1500 rpm for 7 minutes, remove supernatant. • d. Dilute BD Perm/Wash Buffer to 1× with milliQ water. • e. Wash with 200 uL of BD Perm/Wash Buffer, seal plates, vortex. • f. Centrifuge at 1500 rpm for 7 minutes, remove supernatant. • g. Wash with 200 uL of BD Perm/Wash Buffer, seal plates, vortex. (Option to stop, store at 4° C. if needed) • h. Centrifuge at 1500 rpm for 7 minutes, remove supernatant. • i. Add 50 uL BD Perm/Wash Buffer containing 1:1000 of HA-FITC (Well A12:D12) or IgG-FITC (Well F12:H12) directly conjugated antibody, seal plates, vortex, pulse spin, and incubate at 4° C. for 1 hour. • j. Centrifuge at 1500 rpm for 7 minutes, remove supernatant. • k. Wash with 200 uL of BD Perm/Wash Buffer, seal plates, vortex. • 4. Centrifuge at 1500 rpm for 7 minutes, remove supernatant. • a. Resuspend in 200 ul of BD Perm/Wash Buffer. (Option to stop, store at 4° C. if needed)
• 1. Use analysis from template HTFC file. • 2. Export statistics by going to Tools>Group stats, save as a .csv file with the plate barcode as the name. • 3. Remove all columns from this file except for “Well”, “Sample ID”, “Date”, and “HA+.Mean.Y Mean for HA+ gated by P01.cells”. • 4. Create a New DB Analysis in Scinamic using the “HTFC-Cell Pharm” template. • 5. Load Incyte file “barcode”.csv. • 6. Load Echo file with the generated Echo report (P:\LabData\Echo\Project\SMARTCAR\Echo Report\Labcyte Echo Dose-Response) • 7. Edit Platemap.xlsx with the plate barcodes. • 8. Load Plate Map with this file. • 9. Cleanup compound Ids, mask control outliers, and assign curves.
Using the above assay the HTFC DC50 data was determined for the compounds in Table 2 below.
Example 6: HiBit and HTFC DC50 Data for Representative Compounds of the Present Invention

DC50, < 100 nM:
CNC(=O)c1cnc2ccc(C(=O)NCC(=O)N3CCN(C(=O)CNc4cccc5c4C(=O)N(C4CCC(=O)NC4=O)C5=O)CC3)cc2c1Nc1ccccc1 (centres unmarked) [Compound 348, 4-anilino-N6-[2-[4-[2-[[2-(2,6-dioxo-3-piperidyl)-1,3-dioxo-isoindolin-4-yl]amino]acetyl]piperazin-1-yl]-2-oxo-ethyl]-N3-methyl-quinoline-3,6-dicarboxamide]
CNC(=O)c1cnc2ccc(-c3ccn(CCCCCCNC(=O)COc4cccc5c4C(=O)N(C4CCC(=O)NC4=O)C5=O)n3)cc2c1Nc1ccccc1 (centres unmarked) [Compound 361, 4-anilino-6-[1-[6-[[2-[2-(2,6-dioxo-3-piperidyl)-1,3-dioxo-isoindolin-4-yl]oxyacetyl]amino]hexyl]pyrazol-3-yl]-N-methyl-quinoline-3-carboxamide]
CNC(=O)c1cnc2cc(OC)c(-c3cnc(C(=O)NCCCCn4cc(CNc5cccc6c5C(=O)N(C5CCC(=O)NC5=O)C6=O)nn4)cn3)cc2c1Nc1ccccc1 (centres unmarked) [Compound 380, 6-(5-((4-(4-(((2-(2,6-dioxopiperidin-3-yl)-1,3-dioxoisoindolin-4-yl)amino)methyl)-1H-1,2,3-triazol-1-yl)butyl)carbamoyl)pyrazin-2-yl)-7-methoxy-N-methyl-4-(phenylamino)quinoline-3-carboxamide]
CNC(=O)c1cnc2ccc(-c3ccc(OCCCCNC(=O)CNc4cccc5c4C(=O)N(C4CCC(=O)NC4=O)C5=O)nc3)cc2c1Nc1ccccc1 (centres unmarked) [Compound 369, 4-anilino-6-[6-[4-[[2-[[2-(2,6-dioxo-3-piperidyl)-1,3-dioxo-isoindolin-4-yl]amino]acetyl]amino]butoxy]-3-pyridyl]-N-methyl-quinoline-3-carboxamide]
COc1cc2ncc(C(=O)NC(C)(C)C)c(Nc3ccccc3)c2cc1-c1ccc(C(=O)NCCCCn2cc(CNc3cccc4c3C(=O)N(C3CCC(=O)NC3=O)C4=O)nn2)nc1 (centres unmarked) [Compound 373, N-(tert-butyl)-6-(6-((4-(4-(((2-(2,6-dioxopiperidin-3-yl)-1,3-dioxoisoindolin-4-yl)amino)methyl)-1H-1,2,3-triazol-1-yl)butyl)carbamoyl)pyridin-3-yl)-7-methoxy-4-(phenylamino)quinoline-3-carboxamide]
CNC(=O)c1cnc2cc(OC)c(OCC3CCN(C(=O)CCCNC(=O)CNc4cccc5c4C(=O)N(C4CCC(=O)NC4=O)C5=O)CC3)cc2c1Nc1ccccc1 (centres unmarked) [Compound 370, 6-((1-(4-(2-((2-(2,6-dioxopiperidin-3-yl)-1,3-dioxoisoindolin-4-yl)amino)acetamido)butanoyl)piperidin-4-yl)methoxy)-7-methoxy-N-methyl-4-(phenylamino)quinoline-3-carboxamide]
CNC(=O)c1cnc2ccc(-c3ccc(C(=O)NCCCN4CCC(Nc5cccc6c5C(=O)N(C5CCC(=O)NC5=O)C6=O)CC4)cc3)cc2c1Nc1ccccc1 (centres unmarked) [Compound 366, 4-anilino-6-[4-[3-[4-[[2-(2,6-dioxo-3-piperidyl)-1,3-dioxo-isoindolin-4-yl]amino]-1-piperidyl]propylcarbamoyl]phenyl]-N-methyl-quinoline-3-carboxamide]
CNC(=O)c1cnc2ccc(NCCCCCCCCCCNC(=O)COc3cccc4c3C(=O)N(C3CCC(=O)NC3=O)C4=O)cc2c1NC1CC1 (centres unmarked) [Compound 460, 4-(cyclopropylamino)-6-((10-(2-((2-(2,6-dioxopiperidin-3-yl)-1,3-dioxoisoindolin-4-yl)oxy)acetamido)decyl)amino)-N-methylquinoline-3-carboxamide]
CNC(=O)c1cnc2ccc(-c3ccc(C(=O)NCCCCNC(=O)CNc4cccc5c4C(=O)N(C4CCC(=O)NC4=O)C5=O)c(F)c3)cc2c1Nc1ccccc1 (centres unmarked) [Compound 350, 4-anilino-6-[4-[4-[[2-[[2-(2,6-dioxo-3-piperidyl)-1,3-dioxo-isoindolin-4-yl]amino]acetyl]amino]butylcarbamoyl]-3-fluoro-phenyl]-N-methyl-quinoline-3-carboxamide]
CNC(=O)c1cnc2cc(OC)c(OCC3CCN(CCCCNC(=O)CNc4cccc5c4C(=O)N(C4CCC(=O)NC4=O)C5=O)CC3)cc2c1Nc1ccccc1 (centres unmarked) [Compound 371, 6-((1-(4-(2-((2-(2,6-dioxopiperidin-3-yl)-1,3-dioxoisoindolin-4-yl)amino)acetamido)butyl)piperidin-4-yl)methoxy)-7-methoxy-N-methyl-4-(phenylamino)quinoline-3-carboxamide]
CNC(=O)c1cnc2cc(OC)c(-c3ccc(C(=O)NCCCCNC(=O)C(C)Nc4cccc5c4C(=O)N(C4CCC(=O)NC4=O)C5=O)c(F)c3)cc2c1Nc1ccccc1 (centres unmarked) [Compound 367, 6-(4-((4-(2-((2-(2,6-dioxopiperidin-3-yl)-1,3-dioxoisoindolin-4-yl)amino)propanamido)butyl)carbamoyl)-3-fluorophenyl)-7-methoxy-N-methyl-4-(phenylamino)quinoline-3-carboxamide]
